The results in this text go back to patent US20160115186A1, “PHOSPHORIC ACID/PHOSPHONIC ACID DERIVATIVES AND MEDICINAL USES THEREOF” (priority 2013, published 2016).

Where two headings read alike, the source gives them in different places. Bounds are passed on as bounds.

One data set can be described thus: in vitro. Type of data set: cell-based. The note with it: human; Hep G 2.2.15 cells, MTT, day 3 post-dosing. As to the method: Hep G 2.2.15 cells were inoculated in a 96-well plate (with cell number being 5.5×10^4) to continually cultivate for 3 days, new culture solutions containing different concentrations of drugs were added, and 3 wells were provided in parallel; at day 3 post-dosing, MTT was added until 7.5 mg/ml, and continued to cultivate for 2 hours, the supernate was discarded, isopropanol containing 10% […] was added, 120 μl/well, and 0.4 μl/well was further added.

Data set [1] concerns liver damage in mice caused by CCl4. Type of data set: in vivo, Kunmin mice. The following applies: serum, CCl4 model, 0.2 mmol oral twice, 24 hours after second administration. As to the method: Kunmin mice (20 g) were grouped randomly (8/group). 0.2 mmol of a compound to be tested was orally administered; after 1 hour post-dosing, a 0.1% peanut oil solution of CCl4 was subcutaneously injected (10 mL/kg), to prepare a liver damage model; the normal saline was injected as a normal control group. After modeling for 12 hours, 0.2 mmol of the compound to be tested was orally administrated again. After 24 hours from the second administration, blood samples were collected to take serum specimen so as to determine ALT, AST.

In data set [2] the test system is liver damage in mice caused by D-aminogalactose. Format: in vivo, Kunmin mice. The following applies: serum, D-aminogalactose 750 mg/kg model, 0.2 mmol oral twice, 24 hours after second administration. As to the method:
Kunmin mice (20 g) were grouped randomly (8/group). 0.2 mmol of a compound to be tested was orally administered; after 2 hours post-dosing, D-aminogalactose was intraperitoneally injected at a dose of 750 mg/kg to prepare a liver damage model, and the normal saline was subcutaneously injected as a normal control group. After modeling for 12 hours, 0.2 mmol of the compound to be tested was orally administrated again. After 24 hours from the second administration, blood samples were collected to take serum specimen so as to determine ALT, AST.

The test system of another data set is DHBV. The experiment in a line: animal or person. Type of data set: in vivo, sheldrakes. The following applies: Duck hepatitis B virus, po, 336 h, serum DHBV DNA; for inhibition in vivo at 20 mg/kg: 20 mg/kg intragastric once a day for 14 days; for inhibition in vivo at 10 mg/kg: 10 mg/kg intragastric once a day for 14 days. As to the method:
The sheldrakes infected by vertical transmission and being positive in DHBV DNA detection were grouped randomly, 5/group. Water and different doses of the compound to be tested were intragastrically administrated, respectively, once a day, for 14 days. Venous blood samples were collected pre-dosing, at day 14 of dosing and at day 7 after drug withdrawal, the serum DHBV DNA content was measured using external standard TaqMan real-time fluorescence PCR method, and the inhibition ratio was calculated, as compared to the solvent group.

The mark [3] stands for this setting: read-out: Inhibition ratio (%) Day 14 of dosing.
Setting [4] is: read-out: Inhibition ratio (%) day 7 after drug withdrawal.

In the case of `C[C@@]1(F)[C@H](O)[C@@H](COP(=O)(Oc2ccc3c(c2)OCO3)Oc2ccc3c(c2)OCO3)O[C@H]1n1ccc(=O)[nH]c1=O` [Compound I17, 5′-O-[bis-((benzo[1,3]dioxolan-5-yl)-oxyl)-phosphoryl]-β-D-2′-deoxy-2′-α-fluoro-2′-β-C-methyl uridine], in “in vitro”, the CC50 at 3 days is greater than 200 µM.

In the data set “in vitro”, `C=C1[C@H](COP(=O)(Oc2ccc3c(c2)OCO3)Oc2ccc3c(c2)OCO3)[C@@H](O)C[C@@H]1n1cnc2c(OC)nc(N)nc21` [Compound I16, 2-amino-6-methoxyl-9-[(1S,3R,4S)-4-hydroxyl-3-(bis-(((benzo[1,3]dioxolan-5-yl)-oxyl)-phosphoryl)-oxymethyl)-2-methylenecyclopentyl]-purine] displayed a 50% cytotoxic concentration (CC50) at 3 days greater than 200 µM.

As to `C[C@H](N[P@](=O)(OC[C@H]1O[C@@H](n2ccc(=O)[nH]c2=O)[C@](C)(F)[C@@H]1O)Oc1ccc2c(c1)OCO2)C(=O)OC1CCCCC1` [Compound I32], the CC50 in the data set “in vitro” is greater than 200 µM.

In the case of `COc1nc(N)nc2c1ncn2[C@@H]1O[C@H](CO[P@@](=O)(N[C@@H](C)C(=O)OC(C)C)Oc2ccc3c(c2)OCO3)[C@@H](O)[C@@]1(C)F` [Compound I34-b], the ALT is recorded as 289 U/L in data set [1] and 341 U/L in data set [2]. The AST turned out to be 536 U/L in data set [1] and 194 U/L in data set [2].

Regarding `C[C@H](Cn1cnc2c(N)ncnc21)OCP(=O)(Oc1cccc2c1OCO2)Oc1cccc2c1OCO2` [Compound I5, 9-[(R)-2-[[bis-((benzo[1,3]dioxolan-4-yl)-oxyl)-phosphonyl]-methoxyl]-propyl]-adenine], the 50% cytotoxic concentration (CC50) at 3 days in the data set “in vitro” was greater than 200 µM.

For the compound `CC(C)OC(=O)[C@H](C)N[P@](=O)(OC[C@H]1O[C@@H](n2ccc(=O)[nH]c2=O)[C@](C)(F)[C@@H]1O)Oc1ccc2c(c1)OCO2` [Compound I31-b], in data set [1], the ALT was found to be 205 U/L and the AST is reported as 439 U/L. In data set [2], this compound yielded an ALT of 375 U/L and an AST of 751 U/L.

On to `COc1nc(N)nc2c1ncn2[C@@H]1O[C@H](COP(=O)(N[C@@H](C)C(=O)OC(C)C)Oc2ccc3c(c2)OCO3)[C@@H](O)[C@@]1(C)F` (stereo partly shown) [Compound I34], for which the CC50 in “in vitro” was greater than 200 µM.

In turn, `COc1ccc(Sc2nc(N)nc3c2ncn3CCOCP(=O)(Oc2cccc3c2OCO3)Oc2cccc3c2OCO3)cc1` [Compound I7, 2-amino-6-(4-methoxylphenyl)thio-9-[[[bis-((benzo[1,3]dioxolan-4-yl)-oxyl)-phosphonyl]-methoxyl]-ethyl]-purine] came in with a CC50 at 3 days in the data set “in vitro” greater than 200 µM.

`CC(C)OC(=O)[C@H](C)N[P@@](=O)(OC[C@H]1O[C@@H](n2ccc(=O)[nH]c2=O)[C@](C)(F)[C@@H]1O)Oc1ccc2c(c1)OCO2` [Compound I31-a]: in data set [1], the ALT was 507 U/L and the AST came out at 446 U/L. In data set [2], this compound showed an ALT of 421 U/L and an AST of 253 U/L.

`CCOC(=O)[C@H](C)N[P@](=O)(OC[C@H]1O[C@@H](n2ccc(=O)[nH]c2=O)[C@](C)(F)[C@@H]1O)Oc1ccc2c(c1)OCO2` [Compound I30] came in with a half-maximal cytotoxic concentration (CC50) in “in vitro” greater than 200 µM.

Regarding `CC(C)OC(=O)[C@H](C)N[P@](=O)(OC[C@H]1O[C@@H](n2ccc(N)nc2=O)CS1)Oc1ccc2c(c1)OCO2` [Compound I36], the ALT in data set [1] is reported as 490 U/L; in data set [2], 187 U/L. For the same compound, the AST amounted to 543 U/L in data set [1] and 113 U/L in data set [2]. Besides, the CC50 in “in vitro” was greater than 200 µM. The values for the inhibition in vivo at 20 mg/kg with DHBV (setting [3]) and with DHBV (setting [4]) were 92% and 10.8%, respectively.

As to `COc1nc(N)nc2c1ncn2[C@@H]1O[C@H](CO[P@@](=O)(N[C@@H](C)C(=O)OC(C)C)Oc2ccccc2)[C@@H](O)[C@@]1(C)F` [PSI-353661, reference compound], the ALT stood at 1669 U/L in data set [1] and 1558 U/L in data set [2]. Besides, the AST in data set [1] was found to be 2312 U/L; in data set [2], 1027 U/L. The compound also gave a CC50 in “in vitro” of 149 µM.

As for `Cc1cc(OCP(=O)(Oc2ccc3c(c2)OCO3)Oc2ccc3c(c2)OCO3)cc(C)c1Cc1ccc(O)c(C(C)C)c1` [Compound I9, bis-(benzo[1,3]dioxolan-5-yl) [(3,5-dimethyl-4-(4′-hydroxyl-3′-isopropylbenzyl)phenoxyl)-methyl]-phosphonate], in “in vitro”, the CC50 at 3 days was greater than 200 µM.

`C=C1[C@H](COP(=O)(N[C@@H](C)C(=O)OC(C)C)Oc2cccc3c2OCO3)[C@@H](O)C[C@@H]1n1cnc2c(=O)[nH]c(N)nc21` (stereo partly drawn) [Compound I39, 9-[(1S,3R,4S)-4-hydroxyl-3-[(((benzo[1,3]dioxolan-4-yl)-oxyl)-1-isopropoxycarbonylethylamino-phosphoryl)-oxymethyl]-2-methylenecyclopentyl]-guanine] returned a CC50 in the data set “in vitro” of 182 µM.

`CCOC(=O)[C@@H](C)NP(=O)(CO[C@H](C)Cn1cnc2c(N)ncnc21)Oc1ccc2c(c1)OCO2` (stereo partly shown) [Compound I20] gave a CC50 at 3 days in the data set “in vitro” of 179 µM.

As for `COC(=O)[C@@H](C)NP(=O)(OCCOCn1cnc2c(=O)[nH]c(N)nc21)Oc1ccccc1` (stereo partly shown) [i-3, reference compound], the ALT worked out at 231 U/L in data set [1] and 1150 U/L in data set [2]. Also, the AST is reported as 446 U/L in data set [1] and 1419 U/L in data set [2]. This compound had a CC50 in “in vitro” of 177 µM. Also, the inhibition in vivo at 20 mg/kg in the data set on DHBV (setting [3]) came out at 56.6%; with DHBV (setting [4]) it was 14.6%.

Compound `COC(=O)[C@H](C)N[P@](=O)(OC[C@H]1O[C@@H](n2ccc(N)nc2=O)CS1)Oc1ccc2c(c1)OCO2` [Compound I37] returned a CC50 in the data set “in vitro” of 193 µM. Also, the inhibition in vivo at 10 mg/kg worked out at 75.2% in the data set on DHBV (setting [3]) and 9.4% in the data set with DHBV (setting [4]).

The compound `C[C@H](Cn1cnc2c(N)ncnc21)OCP(=O)(N[C@H](C)C(=O)OC1CCCCC1)Oc1ccc2c(c1)OCO2` (stereo partly shown) [Compound I25] showed a half-maximal cytotoxic concentration (CC50) at 3 days in “in vitro” greater than 200 µM.

`CC(C)Cc1sc(N)nc1-c1ccc(P(=O)(Oc2ccc3c(c2)OCO3)Oc2ccc3c(c2)OCO3)o1` [Compound I10, bis-(benzo[1,3]dioxolan-5-yl) [5-[2-amino-5-(2-methylpropyl)-thiazol-4-yl]-furan-2-yl]-phosphonate] returned a CC50 at 3 days in the data set “in vitro” greater than 200 µM.

In data set [1], `CC(C)OC(=O)[C@H](C)N[P@](=O)(OC[C@H]1O[C@@H](n2ccc(=O)[nH]c2=O)[C@](C)(F)[C@@H]1O)Oc1ccccc1` [PSI-7977, 5′-[(S)-[[(S)-1-(isopropoxycarbonyl)-ethyl]-amino]-phenoxylphosphoryl]-β-D-2′-deoxy-2′-α-fluoro-2′-β-C-methyluridine, reference compound] came in with an ALT of 2324 U/L and an AST of 2538 U/L. The same compound showed a CC50 in the data set “in vitro” of 178 µM. In data set [2], this compound showed an ALT of 1079 U/L and an AST of 1727 U/L.

`CCOC(=O)[C@H](C)N[P@](=O)(OC[C@H]1O[C@@H](n2cnc3c(OC)nc(N)nc32)[C@](C)(F)[C@@H]1O)Oc1ccc2c(c1)OCO2` [Compound I33]: the CC50 in the data set “in vitro” is greater than 200 µM.

Compound `COc1nc(N)nc2c1ncn2[C@@H]1O[C@H](COP(=O)(N[C@@H](C)C(=O)OC(C)C)Oc2cccc3c2OCO3)[C@@H](O)[C@@]1(C)F` (stereo partly shown) [Compound I40] gave a CC50 in “in vitro” greater than 200 µM.

`COc1nc(N)nc2c1ncn2[C@@H]1O[C@H](CO[P@@](=O)(N[C@@H](C)C(=O)OC2CCCCC2)Oc2ccc3c(c2)OCO3)[C@@H](O)[C@@]1(C)F` [Compound I35] showed a cytotoxic concentration (CC50) in “in vitro” greater than 200 µM.

In “in vitro”, `CC(C)OC(=O)[C@@H](C)NP(=O)(CO[C@H](C)Cn1cnc2c(N)ncnc21)Oc1ccc2c(c1)OCO2` (stereo partly shown) [Compound I21] gave a 50% cytotoxic concentration (CC50) at 3 days greater than 200 µM.

`CC(C)C[C@@H](NP(=O)(CO[C@H](C)Cn1cnc2c(N)ncnc21)Oc1ccc2c(c1)OCO2)C(=O)OC(C)C` (stereo partly shown) [Compound I23] came in with a CC50 at 3 days in the data set “in vitro” greater than 200 µM.

`COc1nc(N)nc2c1ncn2[C@@H]1O[C@H](CO[P@](=O)(N[C@@H](C)C(=O)OC(C)C)Oc2ccc3c(c2)OCO3)[C@@H](O)[C@@]1(C)F` [Compound I34-a]: in data set [1], the ALT is on record as 293 U/L and the AST was determined as 763 U/L. Moreover, in data set [2], the ALT is given as 131 U/L and the AST turned out to be 282 U/L.

Consider `CC(C)OC(=O)[C@H](C)NP(=O)(OC[C@H]1O[C@@H](n2ccc(=O)[nH]c2=O)[C@](C)(F)[C@@H]1O)Oc1ccc2c(c1)OCO2` (stereo partly shown) [Compound I31], for which the cytotoxic concentration (CC50) in the data set “in vitro” is greater than 200 µM.
